Marks after values point to notes of the source that are not given here.
How the values were obtained:
[1] = system: AMPK, FOXO1, SIRT3; assay: qPCR and immunoblotting of hepatic glucose metabolism and longevity markers; format: in vivo, mouse
Experimental: Immunoblotting analyses. Western blot analyses carried out in mouse livers, heart and adipose tissues collected from aged mice after treatments. Proteins (40 μg) were separated by electrophoresis on a sodium dodecyl sulfate (SDS) 4-20% polyacrylamide gel under reducing conditions. Membranes (Amersham Hybond PVDF, Germany) were probed overnight at 4° C. using Total OX-OPHOS Rodent cocktail (ab110413, USA), Complex IV, AMPK γ1, PGC-1α and Pparγ, FOXO1, TNF-α, IL-6 (USA, abCAM) and then incubated with polyclonal Goat anti-mouse IgG H&R (1:2000, ab6789, USA) in blocking buffer for 2 h at room temperature. To assure equal loading and/or to normalize protein content, the membrane blots were incubated with mouse anti-β-actin monoclonal antibody (mAbcam8227). Proteins were visualized using a chemiluminescence ECL Western blotting detection reagent (Bio-rad, USA). Quantification of protein was performed by chemiluminescence blot scanning (Quantity One™ version 4.6.3. Bio Rad).
Gene expression & RT qPCR Analyses. Total RNA was isolated using a commercially available kit (OMEGA bio-tek, R6812-02) according to the manufacturer's instructions. cDNA was generated using the PrimeScript RT reagent kit (TAKARA, RR047A). Gene expression were determined by qPCR as described in the product manual. The analysis was evaluated by Bio-Rad Real-Time System (CFX Connect™).
RNAs from 10 mice (5 treated and 5 Ctrl.) VF fat or livers were isolated by using omega Bio-Tek reagents, and cDNA was transcribed by (TAKARA). qPCR was then performed by using iQ SYBR Green mastermix bioscience on a CFX96 Real-Time System/C1000 Thermal Cycler (Bio-Rad).

[2] = system: ATP production; assay: ATP level in liver of treated mice; format: in vivo, mouse
From the text: Measurement of ATP level in liver. For measuring ATP, cellular ATP in livers was extracted using an ATP extraction kit of an ATP assay kit (Sigma-Aldrich, MAKI 90). The ATP level was quantitatively measured by the absorbance at 570 nm (A570).

[3] = system: mature 3T3-L1 cells; assay: 2-NBDG glucose uptake in matured adipocytes; format: cell-based; settings: highest concentration 50 μg/mL, vs insulin (control) and Rosiglitazone
Experimental: Second, adipocytes are the main site of insulin action and, thereby, play an important role in glucose metabolism as well as in the regulation of body glucose homeostasis. Therefore, the glucose uptake tests were evaluated on matured adipocytes to stimulate 2-NBDG (glucose) in the absence and presence of insulin and Rosiglitazone (insulin-sensitizer) and the higher insulin sensitivity was verified after treatment by the inhibitor.

[4] = Stability of compound in drinking water; format: physicochemical; settings: drinking water pH=7-7.4, room temperature, 20-30 days
From the text: Previously, the inventors developed series of derivatives of the tetrazole, thiazole, and 1,2,3-triazole families that were thought to be reversible inhibitors of the cytochrome c oxidase (CcO) model and characterized as possible moderate inhibitors of mitochondrial respiration (Barile et al. (2012), Proceedings of the National Academy of Sciences of the United States of America, 109:7, pp. 2539-2543). In this research, a triphenyl phosphonium thiazole derivative (referred to herein as HG1a-1) was randomly selected. Overall, no mice died due to oral administration of compound during 18-20 months. […]
The C57BL/6 mice were maintained on a standard purified mouse diet (PicoLab 5053 Rodent Diet 20; Lab Diets) until they reached 2 months of age when the treatments started. […] Body weights were measured weekly at the same time each week. Food and water intake were measured once every month for 3-6 consecutive days at the same time each month. Water consumption was measured for 2 weeks prior to the start of administration. Compound was generated and modified for better permeability in to mitochondria, evaluated by HPLC, was 96%-97%. […] Aliquots were collected from each batch and measured by HPLC to confirm stability of the compound. […] Rectal body temperature was measured monthly, as described previously. Whole blood samples, and histopathology were analyzed after 14 months of treatment. […]

[5] = Serum biomarkers in treated mice; format: in vivo, C57BL/6 mice; settings: 100 mg/Kg per day
From the text: (§1) The C57BL/6 mice were maintained on a standard purified mouse diet (PicoLab 5053 Rodent Diet 20; Lab Diets) until they reached 2 months of age when the treatments started. The CR animals were subjected to a lifelong restriction on PicoLab 5053 Rodent Diet 20; Lab Diets, starting at 12 weeks of age, with a daily food allotment of 60% of that eaten by the ad lib animals. Besides CR animals, the C57BL/6 groups in this study were fed the standard high fat diet (HFD; 60 or 40% fat). Body weights were measured weekly at the same time each week. Food and water intake were measured once every month for 3-6 consecutive days at the same time each month. Water consumption was measured for 2 weeks prior to the start of administration. Compound was generated and modified for better permeability in to mitochondria, evaluated by HPLC, was 96%-97%. The administration began at 8 weeks of age and continued for 16 months, until they became 18-month-old. The drug solution was prepared weekly in small batches by dissolving the compound into autoclaved water at the respective doses and filtering sterilely. Aliquots were collected from each batch and measured by HPLC to confirm stability of the compound. Water bottles and cages were changed twice weekly. Fed and fasted blood samples were collected monthly at the same time each month from tail and used for glucose, insulin, blood cell counts, lipid analysis using assay kits (Robio, China) and HbA1C assay kit (Crystal chem, USA) following the manufacturer protocol. IPGTTs and ITTs were conducted throughout morning and early afternoon after fasting for 16-18 hrs. and 4 hrs., respectively, once before start of treatment administration began and every 3 months thereafter. Rectal body temperature was measured monthly, as described previously. Whole blood samples, and histopathology were analyzed after 14 months of treatment. Tissue samples were collected after 10-14 months from mice, sacrificed and used for WB and qPCR microarray, and other analyses. All animal studies were approved by the Shanghai Jiao Tong University Animal Studies Committee and were in accordance with NIH guidelines. (Number of mice; SD=30, HFD=10, CR=20).

[6] = Body weight variations on chow diet; format: in vivo, C57BL/6 mice; settings: for body weight lighter than controls: male mice
Experimental: Animal experimentation. […] Ltd) were group-housed in a barrier facility with 12-hr light/12-hr dark cycles. All mice received a regular chow diet ad libitum (PicoLab 5053 Rodent Diet 20; Lab Diets) except for HFD (40-60%) and CR models. The compound was then administered in drinking water ad libitum at either 90-100 or 100-120 mg/kg/day, based on the previously measured water consumption.
as §1

[7] = liver, 14 months treatment (FIG. 6A)

SMILES: Cc1ncsc1CCOC(=O)C[P+](c1ccccc1)(c1ccccc1)c1ccccc1.[Br-] [HG1a-1, (2-(2-(4-Methylthiazol-5-yl)Ethoxy)-2-Oxoethyl) Triphenylphosphonium Bromide]
- APMK amplified [1, 7]: 5 fold
- FOXO1 amplified [1, 7]: 3 fold
- SIRT3 amplified [1, 7]: one-fold
- enhanced deacetylation of FoxO-1 ([1]; livers of treated mice): 3 fold
- relative levels of phosphorylated AMPK increased ([1]; livers of treated mice): 5 fold
- SIRT-3 level ([1]; treated group (FIG. 6A)): marked upgrade
- decrease of ATP level in liver compared to controls ([2]; 6 months): 50%
- decrease of ATP level in liver compared to controls ([2]; long term treated mice): 25%
- 2-NBDG uptake [3]: notably higher
- compound maintained intact in drinking water [4]: 95%-99
- glycated hemoglobin (Hb1Ac) levels vs control and calorie restriction ([5]; 12 months continuous treatment): lower
- Cholesterol ([5]; serum, treated mice): 6.3 ± 0.9 mM/L
- Glucose-fasted ([5]; serum, treated mice): 4.4 ± 0.2 mM
- Glucose-fed ([5]; serum, treated mice): 6.5 ± 0.3 mM
- Insulin ([5]; serum, treated mice): 2.34 ± 0.5 µg/L
- Total protein ([5]; serum, treated mice): 5.89 ± 0.32 g dl^□−1
- Triglycerides ([5]; serum, treated mice): 1.00 ± 1*^ mM/L
- % HbA1c ([5]; treated mice): 5.5 ± 0.5 %
- body weight decrease vs controls ([6]; female mice, by 9 months): 26%
- body weight less than controls ([6]; female mice, end of 5 months): 12%
- body weight lighter than controls ([6]; after 14 months treatment): 25%
- body weight lighter than controls ([6]; end of 5 months): 18%

Source: patent US20220281902A1, “MIT[…] IMPROVE METABOLIC SYNDROME DURING AGING” (The Board of Trustees of the Leland Stanford Junior …, priority 2019, published 2022)
